Reference: article PMC8288134, “Synthesis, potential antitumor activity, cell cycle analysis, and multitarget mechanisms of novel hydrazones incorporating a 4-methylsulfonylbenzene scaffold: a molecular docking study” (Journal of Enzyme Inhibition and Medicinal Chemistry, 2021)
Where two headings read alike, the source gives them in different places.

What was measured:
HL-60(TB) = experiment: cells; assay type: cell-based, human; settings: Homo sapiens, HL-60, HL-60(TB); one dose 10 µM; read-out: Growth inhibition percentage (GI%)
PRMI-8226 = experiment: NCI antitumor screen (SRB); assay type: cell-based; settings: Homo sapiens, one dose 10 µM, read-out: Growth inhibition percentage (GI%)
EKVX = experiment: NCI antitumor screen (SRB); assay type: cell-based; settings: Homo sapiens, one dose 10 µM, read-out: Growth inhibition percentage (GI%)
HOP-62 = experiment: NCI antitumor screen (SRB); assay type: cell-based; settings: Homo sapiens
NCI-H226 = experiment: NCI antitumor screen (SRB); assay type: cell-based; settings: Homo sapiens, one dose 10 µM, read-out: Growth inhibition percentage (GI%)
NCI-H23 = experiment: NCI antitumor screen (SRB); assay type: cell-based; settings: Homo sapiens, one dose 10 µM, read-out: Growth inhibition percentage (GI%)
NCI-H322M = experiment: NCI antitumor screen (SRB); assay type: cell-based; settings: Homo sapiens, one dose 10 µM, read-out: Growth inhibition percentage (GI%)
NCI-H522 = experiment: NCI antitumor screen (SRB); assay type: cell-based; settings: Homo sapiens
SF-268 = experiment: NCI antitumor screen (SRB); assay type: cell-based; settings: Homo sapiens, one dose 10 µM, read-out: Growth inhibition percentage (GI%)
SF-539 = experiment: NCI antitumor screen (SRB); assay type: cell-based; settings: Homo sapiens, one dose 10 µM, read-out: Growth inhibition percentage (GI%)
U251 = experiment: NCI antitumor screen (SRB); assay type: cell-based; settings: Homo sapiens, U-251, one dose 10 µM, read-out: Growth inhibition percentage (GI%)
UACC-257 = experiment: NCI antitumor screen (SRB); assay type: cell-based, human; settings: Homo sapiens; UACC-257; one dose 10 µM; read-out: Growth inhibition percentage (GI%)
OVCAR-3 = experiment: NCI antitumor screen (SRB); assay type: cell-based; settings: Homo sapiens, one dose 10 µM, read-out: Growth inhibition percentage (GI%)
786-0 = experiment: NCI antitumor screen (SRB); assay type: cell-based; settings: Homo sapiens, one dose 10 µM, read-out: Growth inhibition percentage (GI%)
ACHN = experiment: NCI antitumor screen (SRB); assay type: cell-based; settings: Homo sapiens, one dose 10 µM, read-out: Growth inhibition percentage (GI%)
CAKI-1 = experiment: NCI antitumor screen (SRB); assay type: cell-based; settings: Homo sapiens, one dose 10 µM, read-out: Growth inhibition percentage (GI%)
SN12C = experiment: NCI antitumor screen (SRB); assay type: cell-based; settings: Homo sapiens, one dose 10 µM, read-out: Growth inhibition percentage (GI%)
[1] = system: NSC lung cancer tumour cell lines; settings: cited from earlier work
[2] = system: CNS cancer tumour cell lines; settings: cited from earlier work
[3] = system: breast cancer tumour cell lines; settings: cited from earlier work
M14 = experiment: NCI antitumor screen (SRB); assay type: cell-based; settings: Homo sapiens, one dose 10 µM, read-out: Growth inhibition percentage (GI%)
OVCAR-8 = experiment: NCI antitumor screen (SRB); assay type: cell-based; settings: Homo sapiens, one dose 10 µM, read-out: Growth inhibition percentage (GI%)
MDA-MB-468 = experiment: NCI antitumor screen (SRB); assay type: cell-based; settings: Homo sapiens, one dose 10 µM, read-out: Growth inhibition percentage (GI%)
[4] = system: full panel of 59 cancer cell lines; experiment: NCI antitumor screen, full panel; settings: one dose 10 µM
[5] = HOP-62, one dose 10 µM, read-out: Growth inhibition percentage (GI%)
[6] = read-out: GI50 (subpanel average), reference drugs, ref https://dtp.cancer.gov/dtpstandard/dwindex/index.jsp
[7] = read-out: LC50 (subpanel average), reference drugs, ref https://dtp.cancer.gov/dtpstandard/dwindex/index.jsp
[8] = reference drugs, ref https://dtp.cancer.gov/dtpstandard/dwindex/index.jsp
[9] = NCI-H522, read-out: Growth inhibition percentage (GI%)

Row | SMILES | inhibition at 10 µM (HL-60(TB)) [%] | inhibition at 10 µM (PRMI-8226) [%] | inhibition at 10 µM (EKVX) [%] | inhibition at 10 µM (HOP-62; [5]) [%] | inhibition at 10 µM (NCI-H226) [%] | inhibition at 10 µM (NCI-H23) [%] | inhibition at 10 µM (NCI-H322M) [%] | inhibition at 10 µM (SF-268) [%] | inhibition at 10 µM (SF-539) [%] | inhibition at 10 µM (U251) [%] | inhibition at 10 µM (UACC-257) [%] | inhibition at 10 µM (OVCAR-3) [%] | inhibition at 10 µM (786-0) [%] | inhibition at 10 µM (ACHN) [%] | inhibition at 10 µM (CAKI-1) [%] | inhibition at 10 µM (SN12C) [%] | inhibition at 10 µM (NCI-H522; [9]) [%] | inhibition at 10 µM (M14) [%] | inhibition at 10 µM (OVCAR-8) [%] | inhibition at 10 µM (MDA-MB-468) [%] | further results
1 | O=c1[nH]cc(F)c(=O)[nH]1 [Compound 5-Fu, 5-fluorouracil, reference compound] | 52.1 | 58.6 | 41.6 | 52.2 | 30.5 | 61 | 40.5 | 41 | > 100 | 49.7 | 80.5 | 52.6 | 51.3 | 60.7 | 60.6 | 46 | – | – | – | – | inhibition at 10 µM (NCI-H522; NCI-H522, one dose 10 µM, read-out: Growth inhibition percentage (GI%)): 42%; GI50 [1, 6]: 13.6 µM; CC50 [1, 7]: > 100 µM; TGI (subpanel average) [1, 8]: 80.45 µM; GI50 [2, 6]: 14.4 µM; CC50 [2, 7]: > 100 µM; TGI (subpanel average) [2, 8]: 73.70 µM; GI50 [3, 6]: 6.87 µM; CC50 [3, 7]: > 100 µM; TGI (subpanel average) [3, 8]: 68.01 µM
2 | CS(=O)(=O)c1ccc(C(=O)NN=Cc2cccc3ccccc23)cc1 [Compound 6, 4-(Methylsulfonyl)-N'-(naphthalen-1-ylmethylene)benzohydrazide] | 62.5 | 12.3 | 12.6 | – | 16.3 | 10.4 | < 10 | 14.3 | 10.7 | 23.7 | 58.9 | 32.2 | < 10 | < 10 | 32.8 | 12.6 | 95.5 | 33.2 | 16.2 | 25.8 | inhibition at 10 µM (HOP-62; HOP-62, read-out: Growth inhibition percentage (GI%)): 25.1%; PCE: positive cytotoxic effect (number of cell lines with GI 10 to 100% / total number of cell lines) [4]: 52/59
3 | Cc1ccc(C=NNC(=O)c2ccc(S(C)(=O)=O)cc2)cc1 [Compound 9, N'-(4-Methylbenzylidene)-4-(methylsulfonyl)benzohydrazide] | 24.3 | < 10 | < 10 | < 10 | < 10 | < 10 | < 10 | < 10 | < 10 | 13.7 | 28.4 | < 10 | < 10 | < 10 | 25 | < 10 | 53.9 | < 10 | < 10 | 21.5 | PCE: positive cytotoxic effect (number of cell lines with GI 10 to 100% / total number of cell lines) [4]: 27/59
